According to US20200360249A1, “AN ANTIMICROBIAL COMPOSITION” (Conopco, Inc., d/b/a UNILEVER, priority 2017, published 2020):

Legend:
Format in all cases: cell-based
M. furfur = test: Antifungal activity, log reduction by plate count; conditions: M. furfur ATCC 14521; contact time 24 hr; 10 mg sample in 1000 μL inoculum, 10^5 cells/ml; 32° C.
Experimental: The samples as given in Table-1 were subjected to their anti fungal efficacy on M. furfur as described hereinafter.
Plate was at 30° C. for 72 hrs. Approximately 72 hrs prior to testing, the plate culture was inoculated onto the surface of another sterile Modified Dixon agar plate and incubated at 30° C. for approximately 72 hrs. From second subculture, the optical density of culture is adjusted at 620 nm to give cell strength of 10^7 cfu/ml. The culture was further diluted by 100 times to achieve 10^5 cfu/ml in Pityrosporum broth.
10 mg of each sample was thoroughly mixed by vortex and weighed into a sterile 1.5 ml Eppendorf tube. 1000 μL of M. furfur inocula were added to the above tubes and a blank sterile 1.5 ml Eppendorf tube (no particles as control), respectively so that the load in each tube is 10^5 cells/ml.
All the samples were shaken at 120 RPM in a shaker incubator at 32° C. After 24 hours incubation, 10 μL of the samples were withdrawn from the respective 1.5 ml Eppendorf tubes and diluted with 990 μL of Pityrosporum broth. This represents a 10^2 dilution. Serial dilution was performed from the above 24 hours inocula and plated 100 μL of dilution onto modified Dixon plate. Plate dilution 10^2, 10^3, 10^4 and […]. All the plates were kept for incubation at 32° C. for 24-72 hrs. Plate count for all the plates were done.

Staphylococcus aureus = test: Antibacterial efficacy, log reduction by plate count; conditions: contact time 60 seconds, 40 mg sample in 100 ml water, pH 10, room temperature
Experimental: 40 mg of the powdered sample was dispersed in 100 ml deionised sterile water. The pH was maintained at 10 using NaOH. 8 ml of the solution was taken, to it 1 ml cell (1 mL bacterial suspension of Staphylococcus aureus (stock 10^9 cells/MI) and 1 ml of distilled water was added. The incubation was done at room temperature for 30 and 60 seconds respectively. 1 ml of the above reaction mixtures was taken and added to 9 ml of Dey-Engley Neutralizing Broth. This was further incubated for 5 minutes. This represents 10^−1 dilution. Serial dilutions were performed for plate count.

M. furfur ATCC 14521 = test: Disc diffusion technique (agar cup method), zone of inhibition; conditions: test conc. 0.5 %, Modified Dixon agar, 72 hrs at 32 C, disc diameter 10 mm
Experimental: The plates are swabbed with 100 μl of test inoculum containing approximately 10^6 cells/ml. The swabbed plates are allowed to dry for 5 mins so to absorb excess of remaining culture fluid. The discs impregnated with different test solution were placed on the inoculated agar surface. Each plate was labelled with different test solution and their respective concentration used. The agar plates are incubated for 72 hrs at 32° C. Zones of inhibition are measured using calibrated mm ruler.
Media used: Modified Dixon agar
Incubation conditions: 72 hrs at 32 C
Diameter of disc used: 10 mm (Himedia make)

Compound	Log reduction (M. furfur)	Log reduction (Staphylococcus aureus)	zone of inhibition (mm) (M. furfur ATCC 14521)
NC(=O)c1ccccn1.[Zn] [D, Zinc picolinamide]	1.92		
Zinc niacinamide	1.96		
Zinc isoniacinamide [B]	1.98	0.9	0
